Values joined by “and” are separate entries in the source; they are usually repeats but may differ in a detail not shown here. Equal values may be shown once.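 Method: 48-hour compound exposure of cells in 96-well plates, five concentrations, linear interpolation of endpoints. At the GI50, growth is halved. TGI denotes the concentration required for complete inhibition of growth.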
Legend:
Assay in all cases: growth of human tumour cells (NCI), 48 h
RXF 393 renal = tested on: RXF 393 renal
CCRF-CEM leukemia = tested on: CCRF-CEM leukemia
MDA-MB-435 = tested on: MDA-MB-435
CAKI-1 renal = tested on: CAKI-1 renal
HCT-116 colon = tested on: HCT-116 colon
LOX IMVI melanoma = tested on: LOX IMVI melanoma
ACHN renal = tested on: ACHN renal
HCC-2998 colon = tested on: HCC-2998 colon
M14 melanoma = tested on: M14 melanoma
SNB-19 CNS = tested on: SNB-19 CNS

| SMILES | GI50 (RXF 393 renal) | TGI (RXF 393 renal) | GI50 (CCRF-CEM leukemia) | TGI (CCRF-CEM leukemia) | GI50 (MDA-MB-435) | TGI (MDA-MB-435) | GI50 (CAKI-1 renal) [µM] | TGI (CAKI-1 renal) [µM] | GI50 (HCT-116 colon) | TGI (HCT-116 colon) | GI50 (LOX IMVI melanoma) | TGI (LOX IMVI melanoma) | GI50 (ACHN renal) | TGI (ACHN renal) | GI50 (HCC-2998 colon) | TGI (HCC-2998 colon) | GI50 (M14 melanoma) | TGI (M14 melanoma) | GI50 (SNB-19 CNS) | TGI (SNB-19 CNS) |
| --- | --- | --- | --- | --- | --- | --- | --- | --- | --- | --- | --- | --- | --- | --- | --- | --- | --- | --- | --- | --- |
| CC(=O)Nc1cccc(-n2c(=O)n(C3CC3)c(=O)c3c(Nc4ccc(I)cc4F)n(C)c(=O)c(C)c32)c1 | 0.0661 µM and 0.148 µM | 13.1 µM and > 5.97 µM | 9.15 µM and > 10 µM | > 100 µM | < 0.01 µM and 0.00313 µM | 25 µM and > 10 µM | 0.203 | > 46.5 | < 0.01 µM and 0.00986 µM | 12.5 µM and > 10 µM | < 0.0122 µM and 0.0262 µM | 5.46 µM and > 10 µM | 0.49 µM and 0.291 µM | > 79.5 µM | < 0.01 µM and 0.0024 µM | 15.7 µM and > 10 µM | < 0.01 µM and 0.00173 µM | < 0.01 µM | 5.11 µM and > 2.09 µM | > 100 µM |
| O=c1cc(-c2cccc(F)c2)[nH]c2cc3c(cc12)OCO3 | – | 4.84 µM | 0.346 µM | 75 µM and > 10.8 µM | – | 0.0211 µM | – | > 53.3 | 0.22 µM | 2.91 µM and 15.7 µM | 0.326 µM | 6.4 µM and > 54.4 µM | 0.432 µM | 75 µM and > 59.5 µM | 0.152 µM | 0.357 µM and 0.538 µM | 0.286 µM | 75 µM and 23.8 µM | 0.324 µM | 75 µM and > 45.3 µM |
| CN(C)CC(=O)N1CCC(c2ccc(NC(=O)c3ncc(C#N)[nH]3)c(C3=CCCCC3)c2)CC1 | 3.25 µM | 14.2 µM | 7.26 µM | 28.5 µM | 2.99 µM | 12.6 µM | 3.52 | 16.1 | 3.97 µM | 14.1 µM | 3.17 µM | 12.7 µM | 5.42 µM | 17.8 µM | 5.74 µM | 19 µM | 2.21 µM | 4.97 µM | 11.8 µM | 25.2 µM |
| O=C(CSc1nc2ccc([N+](=O)[O-])cc2[nH]1)Nc1ccc(F)c(Cl)c1 | 2.34 µM | 7.84 µM | 2.75 µM | > 45.7 µM | 2.6 µM | 12.6 µM | 1.95 | 7.33 | 2.42 µM | 10.6 µM | 2.89 µM | 14 µM | 2.35 µM | 7.93 µM | 2.95 µM | 11.8 µM | 2.81 µM | 12.4 µM | 2.83 µM | 13.1 µM |
| CCc1c2c(nc3cc4c(cc13)OCO4)-c1cc3c(c(=O)n1C2)COC(=O)[C@]3(O)CC | – | 0.117 µM and 0.478 µM | – | – | 0.0182 µM and 0.0961 µM | > 100 µM | < 0.001 | – | 1.31 µM | > 100 µM | 0.00197 µM | 0.122 µM and 0.52 µM | < 0.001 µM | 0.146 µM and 0.0376 µM | 0.0443 µM and 0.361 µM | > 100 µM | < 0.001 µM | > 100 µM | 0.0164 µM | 0.455 µM |
| CCOc1ccc(S(=O)(=O)/N=C2\C=C(SCC(=O)O)C(=O)c3ccccc32)cc1 | 1.8 µM | 7.23 µM | – | – | 1.75 µM | 3.63 µM | 7.76 | 20.8 | 2.67 µM | 10.3 µM | 2.31 µM | 10.2 µM | 6.8 µM | 20.2 µM | 14.8 µM | 28.2 µM | 2.72 µM | 8.12 µM | 3.42 µM | 12.1 µM |
| N#CC(=C1SCS1)[N+](=O)[O-] | 1.63 µM | 3.83 µM | 0.376 µM | 5.18 µM | 1.48 µM | 16.9 µM | 2.14 | 16.2 | 0.346 µM | 10.3 µM | 0.567 µM | 14.7 µM | 2.4 µM | 13.2 µM | 4.26 µM | 16.6 µM | – | – | 9.36 µM | 83.5 µM |
| CCCCCCCCCCCCCC(=S)NCCCC[C@H](NC(=O)OCc1ccccc1)C(=O)Nc1ccccc1 | 5.91 µM | > 100 µM | 4.04 µM | > 100 µM | 5.3 µM | > 100 µM | – | – | 3.77 µM | > 100 µM | 5.3 µM | > 100 µM | 3.15 µM | 19.7 µM | 5.69 µM | > 100 µM | 4.66 µM | > 100 µM | 4.27 µM | > 100 µM |
| O=C(Nc1cccc(-n2ccc3c(NC(=O)c4ccccc4)nccc32)c1)c1cccc(C(F)(F)F)c1 | 0.0187 µM | 0.0442 µM | 0.0358 µM | 4.13 µM | 0.0172 µM | 0.043 µM | 0.0556 | 3.36 | 0.0364 µM | 1.46 µM | 0.0838 µM | 2.78 µM | 0.0782 µM | 12.5 µM | 0.0362 µM | > 66.3 µM | – | – | 0.0453 µM | > 100 µM |
| C=C1C(=O)O[C@H]2[C@H]1CC/C(CNC(=O)c1c[nH]c3ccc(F)cc13)=C\CC[C@@]1(C)O[C@@H]21 | 0.522 µM | 1.75 µM | 0.359 µM | 1.83 µM | 1.77 µM | 7.41 µM | – | – | 0.632 µM | 1.98 µM | 0.731 µM | 2.14 µM | 1.04 µM | 2.38 µM | 1.84 µM | 3.44 µM | 1.04 µM | 2.33 µM | 11.9 µM | 26.1 µM |
| N#Cc1c(-c2cccs2)c2c(=S)[nH]c(=S)[nH]c2[nH]c1=S | 37.1 µM | > 100 µM | – | – | 41.1 µM | > 100 µM | 31.4 | > 100 | 49.5 µM | > 100 µM | 18.2 µM | 39.8 µM | 23.8 µM | 67.6 µM | – | – | 57.5 µM | > 100 µM | 75.7 µM | > 100 µM |
| CC(CO)(CO)N=Cc1cc(I)cc(I)c1O | – | 26.5 µM | – | 44.5 µM | – | 40.3 µM | – | 68.2 | – | 31.3 µM | – | 24.2 µM | – | 69.9 µM | – | – | – | 39.3 µM | – | 48.9 µM |
| N/C(CC(=O)Nc1cc(C(F)(F)F)ccc1Cl)=N\O | – | > 100 µM | – | – | – | > 100 µM | – | > 100 | – | > 100 µM | – | > 100 µM | – | > 100 µM | – | – | – | > 100 µM | – | > 100 µM |
| CNC(=O)c1ccccc1CC1(O)c2ccccc2Oc2ccccc21 | – | – | 24.6 µM | > 100 µM | 3.32 µM | 19.9 µM | 21.7 | > 100 | 21.8 µM | > 100 µM | 29.1 µM | > 100 µM | 26.2 µM | > 100 µM | 29 µM | 91.3 µM | 15.3 µM | 56.6 µM | 24.6 µM | > 100 µM |
| COc1ccc(/C=C/C=C(/C#N)C(N)=S)cc1 | 14 µM | 30.1 µM | – | – | 21.6 µM | 77.1 µM | 29.6 | > 100 | 15.6 µM | 31 µM | 16 µM | 37.4 µM | 24.6 µM | 49.9 µM | – | – | 18.8 µM | 42.7 µM | 26.2 µM | > 100 µM |

Source: PubChem BioAssay (NCI)
